Assay results as given in patent US9115061B2, “Naphthalene-based inhibitors of anti-apoptotic proteins” (BURNHAM INSTITUTE FOR MEDICAL RESEARCH, priority 2007, dated 2015).

Experiments:
BCL-XL = BCL-XL (Homo sapiens (Human), UniProt Q07817); experiment: Fluorescence polarization assay with fluorescein-labeled Bad peptide; assay type: binding; conditions: Table 5
Description: FP A assays were conducted with a fluorescein-labeled Bad peptide (NL […] Corporation, Dublin, Calif.) using a LJL Analyst HT Molecular Devices Co., Sunnyvale, Calif.). […] The tubes were incubated for 5 minutes at room temperature and 20 μl each of reaction mixture was transferred to 96-well black PS, HE Microplate (LJL Biosystems Co). All assays were performed in quadruplicate, with blank wells receiving no Gossypol. […] Controls included dose-responses measurements in absence of the proteins, to assess any interactions between the compounds and the FITC-BH3 peptide. Eventual effects were taken into account by subtraction.

ZR75-1 cells = experiment: XTT dye reduction assay; assay type: cell-based, human; conditions: three days
Description: (§1) The effects of the compounds on viability of tumor cells in culture were monitored by using XTT assays with MCF7 and ZR75-1 cell lines. MCF7 cells were grown in DMEM containing 10% fetal bovine serum, penicillin/streptomycin, supplemented with 10^−10 M insulin, 1 mM sodium pyruvate and glutamine. ZR75-1 cells were grown in RPMI containing 10% fetal bovine serum, penicillin/streptomycin, supplemented with HEPES buffer, 1 mM sodium pyruvate and glutamine. Cells were regularly tested for mycoplasma contamination. Cells were seeded triplicates at an initial cell density of 1,000 cells per well. Blank wells received no cells.
(§2) Relative numbers of viable cells was determined by XTT assay. Briefly, in a 96-well plate, we added 50 μl of a mixture of 1 mg/ml of XTT (2,3-bis(2-methoxy-4-nitro-5-sulfophenyl)-5-[(phenylamino)carbonyl]-2H-tetrazolium hydroxide) (Polysciences, Washington, Pa.) containing 0.025 mM PMS (phenazine methosulfate) to each well. The 96-well plates were reincubated for an additional 4 hours to allow for XTT formazan production. Then, the contents of each plate were mixed and optical densities were determined at a wavelength of 450 nm (OD450). Net OD450 was determined after subtracting OD450 of blank wells. Low-passage HeLa cells (between passage number 10 and 20) were transfected with pcDNA3-BCL-XL or control pcDNA3 plasmids using Lipofectamine Plus reagent (Invitrogen) and selected in medium containing 800 μg/ml of G418. Immunoblot analysis of BCL-XL was accomplished as previously described.

MCF7 cells = experiment: XTT dye reduction assay; assay type: cell-based, human; conditions: three days
Description: as §1, §2

Chain of BCL-XL (Q07817 whole entry): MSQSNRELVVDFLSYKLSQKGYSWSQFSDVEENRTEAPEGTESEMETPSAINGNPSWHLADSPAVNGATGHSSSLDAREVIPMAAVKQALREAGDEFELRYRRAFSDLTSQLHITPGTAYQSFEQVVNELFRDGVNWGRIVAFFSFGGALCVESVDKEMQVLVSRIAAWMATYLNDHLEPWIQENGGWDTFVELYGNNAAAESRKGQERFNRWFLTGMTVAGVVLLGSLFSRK

O=c1c(O)cccc2cc(O)c(O)c(O)c12 [Purpurogallin]
IC50 (BCL-XL): 2.2 µM
IC50, cell viability ZR75-1 (ZR75-1 cells): did not show appreciable activity
IC50, cell viability MCF7 (MCF7 cells): did not show appreciable activity
